How the values were obtained:
[1] = cited from earlier work
[2] = saturation concentration of acetylsalicylic acid in the solvent mixture; format: physicochemical; details: solvent mixture: propylene glycol about 10 percent by volume, glycerine about 2 percent by volume, balance isopropyl alcohol/water with isopropyl alcohol about 70 percent by volume

CC(=O)Oc1ccccc1C(=O)O [acetylsalicylic acid]
solubility in water or water based substances [1]: virtually insoluble
saturation concentration of the acetylsalicylic acid in this solvent mixture [2]: about 18 percent by weight per unit volume
